# Patent US11180496B2 (Daewoong Pharmaceutical Co., Ltd., priority 2017, dated 2021)
# Tests used:
# [1] = target: T1, BTK (Homo sapiens, UniProt Q06187); assay: BTK inhibitory activity, ADP-Glo + BTK Kinase enzyme system kit (Promega); assay type: biochemical; conditions: BTK enzyme 1 ng/uL, ATP 10 uM, 15 min preincubation, luminescence, duplicate
# T1 construct: purchased Promega
# Method: (§1) The inhibitory activity against BTK and ITK of the compounds prepared in Examples above were measured as follows.
# (§2) The inhibitory activity against BTK was evaluated using ‘ADP-Glo™+BTK Kinase enzyme system’ kit from Promega. […] 5 uL of substrate and 5 uL of ATP prepared at a final concentration of 10 uM were added to all wells of the plate after completion of the reaction, and allowed to react at 30° C. for 1 hour. All wells of the plate after completion of the reaction were treated with 25 uL of ADP-Glo™ reagent and reacted at 30° C. for 40 minutes. Then, 50 uL of the kinase detection buffer was applied to all wells of the plate, and then the light was blocked and reacted at 30° C. for 30 minutes. For the plate for which all reactions were completed, the luminescence was measured and the results were calculated. The evaluation was performed in duplicate. The respective values of negative and positive controls, depending on whether the enzymes were added without treatment of the compound, were determined, and IC50 was calculated based on the values.
# [2] = target: T2, ITK (Homo sapiens, UniProt Q08881); assay: ITK inhibitory activity, ADP-Glo + ITK Kinase enzyme system kit (Promega); assay type: biochemical; conditions: ITK enzyme 0.4 ng/uL, ATP 25 uM, 15 min preincubation, luminescence, duplicate
# T2 construct: purchased Promega
# T2 sequence (Q08881 1-620): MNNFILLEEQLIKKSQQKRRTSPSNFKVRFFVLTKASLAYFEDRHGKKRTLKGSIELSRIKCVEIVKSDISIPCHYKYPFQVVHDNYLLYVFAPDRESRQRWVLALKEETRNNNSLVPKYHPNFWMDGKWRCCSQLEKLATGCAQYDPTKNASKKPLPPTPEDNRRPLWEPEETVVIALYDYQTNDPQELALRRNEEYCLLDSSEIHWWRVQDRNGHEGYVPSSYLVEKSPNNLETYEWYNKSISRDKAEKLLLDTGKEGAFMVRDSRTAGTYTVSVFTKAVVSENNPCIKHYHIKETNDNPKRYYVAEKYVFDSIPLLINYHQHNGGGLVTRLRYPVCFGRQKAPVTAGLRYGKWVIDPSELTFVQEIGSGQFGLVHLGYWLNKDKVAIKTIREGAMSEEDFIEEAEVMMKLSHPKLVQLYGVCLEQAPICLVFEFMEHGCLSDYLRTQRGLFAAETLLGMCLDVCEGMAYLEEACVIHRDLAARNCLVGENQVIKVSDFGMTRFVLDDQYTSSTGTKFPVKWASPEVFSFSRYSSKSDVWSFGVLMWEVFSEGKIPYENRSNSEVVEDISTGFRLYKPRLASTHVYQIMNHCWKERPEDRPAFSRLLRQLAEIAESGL
# Method: as §1
# as §2, with “ITK” for “BTK”, “‘ADP-Glo™+ITK” for “‘ADP-Glo™+BTK”, “25” for “10”
# T1 sequence (Q06187 whole entry): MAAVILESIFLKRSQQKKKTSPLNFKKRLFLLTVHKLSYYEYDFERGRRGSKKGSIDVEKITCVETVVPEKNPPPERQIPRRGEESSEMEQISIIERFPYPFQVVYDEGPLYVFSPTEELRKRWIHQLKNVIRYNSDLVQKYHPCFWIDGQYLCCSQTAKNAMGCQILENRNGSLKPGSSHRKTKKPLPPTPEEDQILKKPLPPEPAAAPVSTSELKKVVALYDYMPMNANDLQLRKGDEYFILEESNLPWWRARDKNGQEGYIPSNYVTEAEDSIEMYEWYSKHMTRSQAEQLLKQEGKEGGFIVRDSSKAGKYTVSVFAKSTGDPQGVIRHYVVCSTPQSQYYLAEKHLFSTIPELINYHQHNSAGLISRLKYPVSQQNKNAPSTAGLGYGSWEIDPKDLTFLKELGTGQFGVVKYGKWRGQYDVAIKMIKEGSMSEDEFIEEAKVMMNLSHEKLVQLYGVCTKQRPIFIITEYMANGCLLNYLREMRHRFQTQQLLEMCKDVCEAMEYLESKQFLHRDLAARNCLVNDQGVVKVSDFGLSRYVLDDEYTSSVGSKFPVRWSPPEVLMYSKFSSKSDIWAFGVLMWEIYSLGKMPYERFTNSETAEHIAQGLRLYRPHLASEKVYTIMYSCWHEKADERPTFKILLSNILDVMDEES
Structure (SMILES),IC50 [1],IC50 [2]
"C=CC(=O)N1CC[C@H](n2nc(-c3ccc(C(=O)Nc4ccccc4)cc3)c3c(N)ncc(-c4cnn(C(F)F)c4)c32)C1 [Example 46, (S)-4-(1-(1-acryloylpyrrolidin-3-yl)-4-amino-7-(1-(difluoromethyl)-1H-pyrazol-4-yl)-1H-pyrazolo[4,3-c]pyridin-3-yl)-N-phenylbenzamide]",> 400 nM,> 1000 nM
"C=CC(=O)N1CC[C@H](n2nc(-c3ccc(C(=O)Nc4ccccc4)cc3)c3c(N)nccc32)C1 [Example 47, (S)-4-(1-(1-acryloylpyrrolidin-3-yl)-4-amino-1H-pyrazolo[4,3-c]pyridin-3-yl)-N-phenylbenzamide]",180 nM,> 1000 nM
"CC#CC(=O)N1CC[C@H](n2nc(-c3ccc(C(=O)Nc4ccccc4)cc3)c3c(N)nccc32)C1 [Example 48, (S)-4-(4-amino-1-(1-but-2-ynoylpyrrolidin-3-yl)-1H-pyrazolo[4,3-c]pyridin-3-yl)-N-phenylbenzamide]",> 400 nM,> 1000 nM
"C=C(C)C(=O)N1CCC[C@@H](n2nc(-c3ccc(C(=O)Nc4ccccn4)cc3F)c3c(N)nccc32)C1 [Example 54, (R)-4-(4-amino-1-(1-methacryloylpiperidin-3-yl)-1H-pyrazolo[4,3-c]pyridin-3-yl)-3-fluoro-N-(pyridin-2-yl)benzamide]",77.5 nM,> 1000 nM
"C=C(C)C(=O)N1CCC[C@@H](n2nc(-c3ccc(C(=O)Nc4ccccn4)cc3F)c3c(N)ncc(Cl)c32)C1 [Example 55, (R)-4-(4-amino-7-chloro-1-(1-methacryloylpiperidin-3-yl)-1H-pyrazolo[4,3-c]pyridin-3-yl)-3-fluoro-N-(pyridin-2-yl)benzamide]",6.4 nM,124 nM
"C=CC(=O)N1CCC[C@@H](n2nc(-c3ccc(C(=O)Nc4ccccn4)cc3Cl)c3c(N)ncc(Cl)c32)C1 [Example 58, (R)-4-(1-(1-acryloylpiperidin-3-yl)-4-amino-7-chloro-1H-pyrazolo[4,3-c]pyridin-3-yl)-3-chloro-N-(pyridin-2-yl)benzamide]",8.8 nM,9.3 nM
"C=CC(=O)N1CCC[C@@H](n2nc(-c3ccc(C(=O)Nc4ccccn4)cc3OC)c3c(N)ncc(Cl)c32)C1 [Example 59, (R)-4-(1-(1-acryloylpiperidin-3-yl)-4-amino-7-chloro-1H-pyrazolo[4,3-c]pyridin-3-yl)-3-methoxy-N-(pyridin-2-yl)benzamide]",3.7 nM,26 nM
"C=CC(=O)N1CCC[C@@H](n2nc(Nc3cnn(C4CC4)c3)c3c(N)nccc32)C1 [Example 61, (R)-1-(3-(4-amino-3-(1-cyclopropyl-1H-pyrazol-4-ylamino)-1H-pyrazolo[4,3-c]pyridin-1-yl)piperidin-1-yl)prop-2-en-1-one]",187 nM,> 1000 nM
"C=CC(=O)N1CCC[C@@H](n2nc(Br)c3c(N)nccc32)C1 [Example 62, (R)-1-(3-(4-amino-3-bromo-1H-pyrazolo[4,3-c]pyridin-1-yl)piperidin-1-yl)prop-2-en-1-one]",6.3 nM,8.1 nM
"C=CC(=O)N1CC(n2nc(-c3ccc(C(=O)Nc4ccccn4)cc3Cl)c3c(N)nccc32)C1 [Example 63, 4-(1-(1-acryloylazetidin-3-yl)-4-amino-1H-pyrazolo[4,3-c]pyridin-3-yl)-3-chloro-N-(pyridin-2-yl)benzamide]",3.1 nM,30.1 nM
"C=CC(=O)N1CCC[C@@H](n2nc(-c3ccc(C(=O)Nc4ccccn4)cc3Cl)c3c(N)ncc(-c4cnn(C)c4)c32)C1 [Example 67, (R)-4-(1-(1-acryloylpiperidin-3-yl)-4-amino-7-(1-methyl-1H-pyrazol-4-yl)-1H-pyrazolo[4,3-c]pyridin-3-yl)-3-chloro-N-(pyridin-2-yl)benzamide]",2 nM,2.7 nM

# Now those with a lower IC50 [1], led by results:
IC50 [1],IC50 [2],Structure (SMILES)
1.2 nM,3.3 nM,"C=CC(=O)N1CCC[C@@H](n2nc(-c3ccc(C(=O)Nc4ccccn4)cc3F)c3c(N)ncc(Cl)c32)C1 [Example 49, (R)-4-(1-(1-acryloylpiperidin-3-yl)-4-amino-7-chloro-1H-pyrazolo[4,3-c]pyridin-3-yl)-3-fluoro-N-(pyridin-2-yl)benzamide]"
1.3 nM,2.1 nM,"C=CC(=O)N1CCC[C@@H](n2nc(-c3ccc(C(=O)Nc4ccccn4)cc3F)c3c(N)ncc(I)c32)C1 [Example 50, (R)-4-(1-(1-acryloylpiperidin-3-yl)-4-amino-7-iodo-1H-pyrazolo[4,3-c]pyridin-3-yl)-3-fluoro-N-(pyridin-2-yl)benzamide]"
0.5 nM,30.8 nM,"C=CC(=O)N1CC2CC1[C@H](n1nc(-c3ccc(C(=O)Nc4ccccn4)cc3F)c3c(N)nccc31)C2 (stereo partly drawn) [Example 51, 4-(1-((6R)-2-acryloyl-2-azabicyclo[2.2.1]heptan-6-yl)-4-amino-1H-pyrazolo[4,3-c]pyridin-3-yl)-3-fluoro-N-(pyridin-2-yl)benzamide]"
1.6 nM,51.6 nM,C=CC(=O)N1CC(n2nc(-c3ccc(C(=O)Nc4ccccn4)cc3F)c3c(N)nccc32)C1 [Example 52]
0.5 nM,4.3 nM,"C=CC(=O)N1CCC[C@@H](n2nc(-c3ccc(C(=O)Nc4ccccn4)cc3F)c3c(N)ncc(C#N)c32)C1 [Example 53, (R)-4-(1-(1-acryloylpiperidin-3-yl)-4-amino-7-cyano-1H-pyrazolo[4,3-c]pyridin-3-yl)-3-fluoro-N-(pyridin-2-yl)benzamide]"
0.4 nM,0.6 nM,"C=CC(=O)N1CCC[C@@H](n2nc(-c3ccc(C(=O)Nc4ccccn4)cc3Cl)c3c(N)nccc32)C1 [Example 56, (R)-4-(1-(1-acryloylpiperidin-3-yl)-4-amino-1H-pyrazolo[4,3-c]pyridin-3-yl)-3-chloro-N-(pyridin-2-yl)benzamide]"
0.5 nM,11.4 nM,"C=CC(=O)N1CCC[C@@H](n2nc(-c3ccc(C(=O)Nc4ccccn4)cc3OC)c3c(N)nccc32)C1 [Example 57, (R)-4-(1-(1-acryloylpiperidin-3-yl)-4-amino-1H-pyrazolo[4,3-c]pyridin-3-yl)-3-methoxy-N-(pyridin-2-yl)benzamide]"
0.4 nM,263 nM,"C=CC(=O)N1CC(n2nc(-c3ccc(C(=O)Nc4ccccn4)cc3F)c3c(N)ncc(Cl)c32)C1 [Example 60, 4-(1-(1-acryloylazetidin-3-yl)-4-amino-7-chloro-1H-pyrazolo[4,3-c]pyridin-3-yl)-3-fluoro-N-(pyridin-2-yl)benzamide]"
1.1 nM,22.5 nM,"C=CC(=O)N1CC(n2nc(-c3ccc(C(=O)Nc4ccccn4)cc3Cl)c3c(N)ncc(Cl)c32)C1 [Example 64, 4-(1-(1-acryloylazetidin-3-yl)-4-amino-7-chloro-1H-pyrazolo[4,3-c]pyridin-3-yl)-3-chloro-N-(pyridin-2-yl)benzamide]"
0.4 nM,1.3 nM,"C=CC(=O)N1CCC[C@@H](n2nc(-c3ccc(C(=O)Nc4ccccn4)cc3Cl)c3c(N)ncc(I)c32)C1 [Example 65, (R)-4-(1-(1-acryloylpiperidin-3-yl)-4-amino-7-iodo-1H-pyrazolo[4,3-c]pyridin-3-yl)-3-chloro-N-(pyridin-2-yl)benzamide]"
1.3 nM,1.3 nM,"C=CC(=O)N1CCC[C@@H](n2nc(-c3ccc(C(=O)Nc4ccccn4)cc3Cl)c3c(N)ncc(C#N)c32)C1 [Example 66, (R)-4-(1-(1-acryloylpiperidin-3-yl)-4-amino-7-cyano-1H-pyrazolo[4,3-c]pyridin-3-yl)-3-chloro-N-(pyridin-2-yl)benzamide]"
0.9 nM,1.7 nM,"C=CC(=O)N1CCC[C@@H](n2nc(-c3ccc(C(=O)Nc4ccccn4)cc3Cl)c3c(N)ncc(CC)c32)C1 [Example 68, (R)-4-(1-(1-acryloylpiperidin-3-yl)-4-amino-7-ethyl-1H-pyrazolo[4,3-c]pyridin-3-yl)-3-chloro-N-(pyridin-2-yl)benzamide]"
